The values that follow come from patent publication US8895497B2, “Cathepsin S inhibitors” (DCB-USA, LLC, priority 2009, dated 2014).

One experiment deals with pancreatic cancer cells. The experiment is described as follows: Migration/invasion of pancreatic cancer cells. It counts as cell-based, human. How it is done: (§1) The cancer cell migration assay was performed in 96-wll-MultiScreen-MIC plates (Millipore) with 8 μm-pore-sized polycarbonate membrane. Briefly, highly-metastatic human lung adenocarcinoma CL1-5 cells were placed onto the upper chamber (2×10^4 cells/well) with tested compounds in complete medium (RPMI 1640 medium containing 1% FBS) and only medium placed onto the lower chamber. The chamber culture was incubated for 24 h at 37° C. and, then, the non-migrated cells were washed off the upper surface of the membrane. The migrated cells on the bottom side were dissociated with Cell Detachment Buffer (Chemicon, Inc.), lysed and stained for nucleic acids with CyQuant GR dye (Molecular Probes). The signal intensities were measured using a fluorescence reader (VICTORTIM 1420 Multilabel Counter, Wallac) at excitation wavelength of 485 nm and emission wavelength of 535 nm (1 sec). The result was presented as the average values from three independent experiments performed in duplicates.
(§2) Similarly, Compounds 1 and 118 were tested against human A2058 melanoma cells and pancreatic cancer cells.

Experiment [1] concerns human A2058 melanoma cells. The experiment is described as follows: Migration/invasion of A2058 melanoma cells. Type of experiment: cell-based. How it is done:
as §1, §2

The next experiment deals with A2058 melanoma cells. The experiment is described as follows: In vivo assay, mice inoculated with A2058 melanoma cells. Also noted: species or system BALB/cAnN-Foxn1nu/CrlNarl female mice. How it is done:
BALB/cAnN-Foxn1nu/CrlNarl female mice were inoculated with A2058 melanoma cells. On day 7, 12 mice were treated i.v. with Compound 1 in DMSO (mg/kg) and 8 mice were treated with DMSO as control. The treatment was continued for 72 days. The mice were sacrificed and their lungs were weighted.

Molecules are shown by their SMILES.

Regarding `O=C(NCCC1CCCCC1)C(O)[C@H](CCc1ccccc1)NC(=O)[C@H](CC1CCCCC1)NC(=O)N1CCOCC1` (stereo partly shown) [Compound 118], in the experiment on pancreatic cancer cells, the “inhibition of migratory and invasice abilities of pancreatic cancer cells” value was “effective inhibited migratory and invasice abilities”.
With `CCOC(=O)CNC(=O)C(=O)[C@H](COCc1ccccc1)NC(=O)[C@H](CC(C)C)NC(=O)c1cccc2c1C(=O)c1ccccc1-2` (stereo in doubt) [Compound 1, Ethyl 2-(4-(benzyloxy)-3-[((2R)-4-methyl-2-[(9-oxo-9H-1-fluorenyl)carbonyl]aminopropanoyl)amino]-2-oxobutanoylamino)acetate], the “inhibition of migratory and invasice abilities of A2058 melanoma cells” value in experiment [1] is “effectively inhibited migratory and invasice abilities”. This compound also gave a lung weights in the experiment with A2058 melanoma cells (A2058 inoculated mice, i.v. in DMSO from day 7, treatment continued for 72 days, DMSO control 0.671 g) of 0.471 g. The “inhibition of cancer growth in A2058 inoculated mice” value with A2058 melanoma cells (i.v. in DMSO, 72 days) was “effectively inhibited cancer growth”.
